# Measured values as given in patent publication US7498406B2, “Substantially cell membrane impermeable compound and use thereof” (priority 1999, dated 2009).
# “Also recorded” adds a separate entry of the source.
# Key:
# HDMVE cells = experiment: Endothelial cell tube formation in Matrigel; assay type: cell-based, human; details: 0.1, 1 or 100 μM; 18 hours
# Experimental: FIG. 21. GSAO perturbs endothelial cell tube formation in Matrigel. Matrigel (100 μl) was added to wells of 96 well plates and allowed to gel for 60 minutes at 37° C. HDMVE cells (10,000 cells per well) in complete media containing 0.1, 1 or 100 μM GSAA or GSAO were seeded onto the Matrigel and the plates were incubated in 5% CO2, 37° C. The phase contrast micrographs were taken after 18 hours incubation.
# Endothelial cells arrange into tube-like structures when seeded onto three-dimensional matrices such as the extracellular matrix preparation, Matrigel, or collagen. The tubes can be considered to represent immature blood vessels. Matrigel (100 μl, Becton Dickinson, Bedford, Mass.) was added to wells of 96 well plates (Gibco BRL, Gaithersburg, Md.) and allowed to gel for 60 minutes at 37° C. Human dermal microvascular endothelial (HDMVE) cells were harvested and cultured as described by Stathakis et al (1997), HDMVE cells (8,000 cells per well) in 150 μl of M199 (Gibco BRL, Gaithersburg, Md.) media containing 30% pooled human serum, 50 μg per mL Heparin (Sigma, St. Louis, Mo.), 100 μg per mL Endothelial Cell Growth Supplement (Gibco BRL, Gaithersburg, Md.) and 0.1, 1 or 100 μM GSAA or GSAO were seeded onto the Matrigel and the plates were incubated for 18 hours in 5% CO2, 37° C. Phase contrast micrographs of the wells were collected.
# BAE = experiment: Viability of cultured cells, 72 hr; assay type: cell-based, bovine
# Experimental: BCE (Folkman et al. 1979), BAE, BxPC-3 (ATCC, Bethesda, Md.), HT1080 (Jiang et al., 1999), 3T3 (ATCC, Bethesda, Md.) and BVSM (Hogg et al., 1997) cells were harvested and cultured as indicated. Cells (0.5 mL of 30,000 or 100,000 cells per mL) were seeded into gelatinized 24-well culture plates (Corning Costar, Corning, N.Y.) in Dulbecco's Modified Eagle's Medium (DMEM, JHR Bioscience, Lenexa, Kans.) containing 10% fetal calf serum (FCS, Intergen Comp., Purchase, N.Y.) and 1% Glutamine Pen-Strep (GPS, Irvine Scientific, Santa Ana, Va.) and allowed to attach for 24 hr in 10% CO2 at 37° C. The media was then replaced with DMEM and 1% GPS containing 0 to 1 mM GSAO or GSAA and either 5% bovine calf serum (BCS, HyClone, Logan, Utah) and 1 ng per mL FGF-2 (Genzyme, Cambridge, Mass.) or 5% BCS and 10 ng per mL VEGF (Genzyme, Cambridge, Mass.) for BCE cells, 5% or 10% BCS for BAE cells, 5% BCS for BVSM cells, and 5% FCS for BxPC-3, HT1080 and 3T3 cells. Cells were cultured for 0 to 72 hr in 10% CO2 at 37° C. then dispersed in trypsin/EDTA (GibcoBRL, Granc Island, N.Y.), resuspended in Coulter balanced electrolyte solution and counted with a Z1 Coulter counter (Coulter Corp., Miami, Fla.) in all experiments there were two control wells containing DMEM with 1% GPS and either 5% BCS for BCE cells, 2% BCS for BAE and BVSM cells, or 2% FCS for BxPC-3, HT1080 and 3T3 cells. […]
# BxPc3 = experiment: Proliferation of cultured cells, 72 hr; assay type: cell-based, human; details: 5% FCS, 0 to 1 mM
# Experimental: (§1) FIG. 19. Effect of GSAO on proliferation of non-endothelial cells. 15,000 BxPC-3 (part A), HT1080 (part B), 3T3 (part C) or BVSM (part D) cells per well were seeded into gelatinised 24-well culture plates and allowed to attach for 24 hr. The media was then replaced with DMEM containing 0 to 1 mM GSAO or GSAA and either 5% BCS (part D) or 5% FCS (parts A, B and C). Cells were cultured for 72 hr and then dispersed and counted. The dotted lines indicate the cell number in control wells containing DMEM and 2% BCS (part D) or 2% FCS (parts A, B and C) which represented no to limited proliferation. The data points and errors represent the mean and range of duplicate wells.
# (§2) BCE (Folkman et al. 1979), BAE, BxPC-3 (ATCC, Bethesda, Md.), HT1080 (Jiang et al., 1999), 3T3 (ATCC, Bethesda, Md.) and BVSM (Hogg et al., 1997) cells were harvested and cultured as indicated. Cells (0.5 mL of 30,000 or 100,000 cells per mL) were seeded into gelatinized 24-well culture plates (Corning Costar, Corning, N.Y.) in Dulbecco's Modified Eagle's Medium (DMEM, JHR Bioscience, Lenexa, Kans.) containing 10% fetal calf serum (FCS, Intergen Comp., Purchase, N.Y.) and 1% Glutamine Pen-Strep (GPS, Irvine Scientific, Santa Ana, Va.) and allowed to attach for 24 hr in 10% CO2 at 37° C. The media was then replaced with DMEM and 1% GPS containing 0 to 1 mM GSAO or GSAA and either 5% bovine calf serum (BCS, HyClone, Logan, Utah) and 1 ng per mL FGF-2 (Genzyme, Cambridge, Mass.) or 5% BCS and 10 ng per mL VEGF (Genzyme, Cambridge, Mass.) for BCE cells, 5% or 10% BCS for BAE cells, 5% BCS for BVSM cells, and 5% FCS for BxPC-3, HT1080 and 3T3 cells. Cells were cultured for 0 to 72 hr in 10% CO2 at 37° C. then dispersed in trypsin/EDTA (GibcoBRL, Granc Island, N.Y.), resuspended in Coulter balanced electrolyte solution and counted with a Z1 Coulter counter (Coulter Corp., Miami, Fla.) in all experiments there were two control wells containing DMEM with 1% GPS and either 5% BCS for BCE cells, 2% BCS for BAE and BVSM cells, or 2% FCS for BxPC-3, HT1080 and 3T3 cells. These wells represented no to limited proliferation.
# HT1080 = experiment: Proliferation of cultured cells, 72 hr; assay type: cell-based, human; details: 5% FCS, 0 to 1 mM
# Experimental: as §1, §2
# BVSM = experiment: Viability of cultured cells, 72 hr; assay type: cell-based, bovine; details: 5% BCS, 0 to 1 mM
# Experimental: as §1
# BCE (Folkman et al. 1979), BAE, BxPC-3 (ATCC, Bethesda, Md.), HT1080 (Jiang et al., 1999), 3T3 (ATCC, Bethesda, Md.) and BVSM (Hogg et al., 1997) cells were harvested and cultured as indicated. […] Cells were cultured for 0 to 72 hr in 10% CO2 at 37° C. then dispersed in trypsin/EDTA (GibcoBRL, Granc Island, N.Y.), resuspended in Coulter balanced electrolyte solution and counted with a Z1 Coulter counter (Coulter Corp., Miami, Fla.) in all experiments there were two control wells containing DMEM with 1% GPS and either 5% BCS for BCE cells, 2% BCS for BAE and BVSM cells, or 2% FCS for BxPC-3, HT1080 and 3T3 cells. […]
# BAE cells = assay type: cell-based, bovine; details: up to 10 mM concentration (not shown)
# HIVIIIB = HIVIIIB entry into / infection of A3.01 cells, p24 antigen; assay type: cell-based, HIV
# Experimental: FIG. 33. […] Cells were washed and incubated in complete medium at 5% CO2 and 37° C. for up to 10 days. […] B Concentration dependence of GSAO. […] Cells were washed, incubated in complete medium at 5% CO2 and 37° C. for 3 days and the conditioned medium collected and assayed for p24 antigen.
# FIG. 34. Inhibition of HIVIIIB infection of A3.01 cells by GSAO.
# A3.01 human T cells were exposed to GSAO for 30 minutes and then to HTLVIIIB virus for 2 hours after which the cells were washed and then cultured for up to 10 days. HTLVIIIB and A3.01 cells were obtained from the NIH AIDS Research and Reference Reagent Program, Rockville, Mass. Virus stocks were made and infectivity titer determined using A3.01 cells and the p24 antigen assay (Coulter, Miami, Fla.). A3.01 cells were cultured in RPMI medium containing 10% fetal calf serum. […] Cell numbers and cell viability were determined at the times specified by staining cells with trypan blue and counting using a Neubauer haemacytometer. Cell viability was measured as a percentage of live cells to total cells.
# [1] = Stability of the trivalent arsenicals towards oxidation; assay type: physicochemical; details: slowed by removal of O2, lower pH or glycine
# Excerpt: This oxidation can be slowed in three ways; removal of dissolved O2 from solutions containing the arsenoxides, lowering the pH of these solutions, or by addition of glycine to the solutions. Glycine is routinely used to prevent oxidation of the stock solutions of the trivalent organoarsenicals. Similar to the reaction between 2,3-dimercaptopropanol and R—As(OH)2 in which a 5-membered dithioarsonite (XI) is formed, reaction of glycine with R—As(OH)2 is thought to give a 5-membered cyclic 1,3,2-oxazarsolidin-5-one (XII).
structure (smiles),measurement,setting,value
"N[C@@H](CCC(=O)N[C@@H](CSCC(=O)Nc1ccc([As](=O)(O)O)cc1)C(=O)NCC(=O)O)C(=O)O [GSAA, 4-(N-(S-glutathionylacetyl)amino)phenylarsonic acid, reference compound]",effect on tube formation,HDMVE cells,no apparent effect on tube formation
same,effect on viability of BAE cells,BAE; not shown,did not effect either proliferation or viability
same,Proliferation IC50,BxPc3,no significant effect
same,Proliferation IC50,HT1080,no significant effect
same,Viability IC50,BVSM,no significant effect
same,effect on BAE viability,BAE cells,no significant effect
"NC(CCC(=O)NC(CSCC(=O)Nc1ccc([As]=O)cc1)C(=O)NCC(=O)O)C(=O)O (centres unmarked) [GSAO, 4-(N-(S-glutathionylacetyl)amino)-phenylarsenoxide]",HIVIIIB infection of A3.01 cells,"HIVIIIB; 10 μM, also in the culture medium",effectively blocked
same,inhibition of HIVIIIB entry,"HIVIIIB; 100 μM, 30 minutes before virus",Inhibition of HIVIIIB entry; also recorded: inhibited entry
same,IC50,"HIVIIIB; Human immunodeficiency virus 1, read-out: half-maximal effect on HIVIIIB entry",~1 µM
same,effect on tube formation,HDMVE cells,Effects were apparent at 0.1 μM concentration and marked at 100 μM
same,stability of solutions towards oxidation,[1],deactivated over time by oxidation
same,IC50,"BAE; Bos taurus, 72 h, 10% BCS, >90% confluent",~10 µM
same,Proliferation IC50,BxPc3,did not affect the proliferation
same,Proliferation IC50,HT1080,did not affect the proliferation
